The text below walks through data of patent publication US20240123073A1, “NOVEL RIPK1 KINASE TARGETING PROTACS AND METHODS OF USE THEREOF” (Baylor College of Medicine, priority 2020, published 2024).

The target of the test is T1, RIPK1 (Homo sapiens, UniProt Q13546).
T1 construct: endogenous in cells
T1 sequence (Q13546 1-671): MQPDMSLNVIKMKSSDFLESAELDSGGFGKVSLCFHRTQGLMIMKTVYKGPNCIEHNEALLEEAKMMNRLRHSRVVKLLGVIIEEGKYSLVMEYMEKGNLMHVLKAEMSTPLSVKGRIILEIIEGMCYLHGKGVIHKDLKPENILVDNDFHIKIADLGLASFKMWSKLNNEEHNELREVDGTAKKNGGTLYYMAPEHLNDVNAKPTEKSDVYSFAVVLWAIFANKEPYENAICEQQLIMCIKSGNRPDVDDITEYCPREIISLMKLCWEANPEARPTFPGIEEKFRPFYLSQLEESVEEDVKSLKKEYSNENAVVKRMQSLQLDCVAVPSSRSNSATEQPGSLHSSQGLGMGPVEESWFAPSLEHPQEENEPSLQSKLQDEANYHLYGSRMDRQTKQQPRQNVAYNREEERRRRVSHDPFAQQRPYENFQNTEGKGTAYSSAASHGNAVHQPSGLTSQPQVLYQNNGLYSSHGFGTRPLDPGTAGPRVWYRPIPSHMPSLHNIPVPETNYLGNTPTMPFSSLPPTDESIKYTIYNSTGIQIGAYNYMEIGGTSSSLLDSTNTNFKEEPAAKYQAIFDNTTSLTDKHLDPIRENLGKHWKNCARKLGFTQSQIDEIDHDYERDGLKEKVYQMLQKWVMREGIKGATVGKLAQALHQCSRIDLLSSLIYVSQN
As to the kind of experiment: RIPK1 degradation Western Blot assay. The format is cell-based. The note with it: human cells, 24 h incubation at 37° C., read-out: Degradation Activity (DC50, concentration at which 50% of RIPK1 kinase has been degraded). As for the experimental part: Cells were seeded in 6-well cell culture plates overnight prior to treatment and incubated with the indicated doses of compounds for 24 h at 37° C. Then, cell pellets were collected and resuspended with RIPA lysis buffer, which was added with 1% […] inhibitor and phosphatase inhibitor Cocktail. Whole-cell protein lysates were sonicated on ice for 20 seconds and centrifuged at 12 000 rpm for 20 min at 4° C. The supernatants were determined using the BCA method. Proteins were separated by sodium dodecyl sulfate-polyacrylamide gel electrophoresis and transferred to polyvinylidene fluoride membranes. The membranes were incubated with blocking buffer for 1 h. Then, the membranes were incubated at 4° C. overnight with the primary antibodies. After washing, the membranes were incubated for 1 h at room temperature with the secondary antibody and washed again. Changes in protein expression was detected using an enhanced chemiluminescence detection reagent. RIPK1 antibody was purchased from Santa Cruz.
The activities of exemplary compounds as described herein, measured in terms of the degradation concentration (DC50 representing the concentration at which 50% of the target, in this case RIPK1 kinase, has been degraded), are provided in Table 11. In Table 11, a DC50 value less than 1 μM is indicated as an “A;” a DC50 value from 1 μM to 10 μM is indicated as a “B” and a DC50 value of greater than 10 μM is indicated as a “C.”
A general note: In western blotting, separated proteins are transferred to a membrane and probed.

The structures appear in SMILES notation.

For `Cc1ncsc1-c1ccc([C@H](C)NC(=O)[C@@H]2C[C@@H](O)CN2C(=O)[C@@H](NC(=O)CCOCCOCCOCCOCCn2cc(-c3ccc4c(c3)CCN4C(=O)Cc3cccc(OC(F)(F)F)c3)c3c(N)ncnc32)C(C)(C)C)cc1` [Compound 29, (2S,4R)-1-((S)-1-(4-amino-5-(1-(2-(3-(trifluoromethoxy)phenyl)acetyl)indolin-5-yl)-7H-pyrrolo[2,3-d]pyrimidin-7-yl)-17-(tert-butyl)-15-oxo-3,6,9,12-tetraoxa-16-azaoctadecan-18-oyl)-4-hydroxy-N—((S)-1-(4-(4-methylthiazol-5-yl)phenyl)ethyl)pyrrolidine-2-carboxamide], the DC50 is below 1000 nM.

As to `O=C1CCC(N2C(=O)c3cccc(NCCOCCOCCOCCNC(=O)c4ccnc(N5CCC(C(=O)N6N=CCC6c6ccccc6)CC5)n4)c3C2=O)C(=O)N1` (stereo not shown) [Compound 19, N-(2-(2-(2-(2-((2-(2,6-dioxopiperidin-3-yl)-1,3-dioxoisoindolin-4-yl)amino)ethoxy)ethoxy)ethoxy)ethyl)-2-(4-(5-phenyl-4,5-dihydro-1H-pyrazole-1-carbonyl)piperidin-1-yl)pyrimidine-4-carboxamide], the DC50 is 1000 to 10000 nM. For `Nc1ncnc2c1c(-c1ccc3c(c1)CCN3C(=O)Cc1cccc(OC(F)(F)F)c1)cn2CCCNC(=O)c1ccc(C#Cc2ccc(N3CC4(CN(C(=O)CN5CCC(c6ccc(NC7CCC(=O)NC7=O)cc6)CC5)C4)C3)nc2)cc1` (stereo not shown) [Compound 68] the value was below 1000 nM; for `Cc1ncsc1-c1ccc([C@H](C)NC(=O)[C@@H]2C[C@@H](O)CN2C(=O)[C@@H](NC(=O)CCc2ccc(C#Cc3ccc(C(=O)NCCCn4cc(-c5ccc6c(c5)CCN6C(=O)Cc5cccc(OC(F)(F)F)c5)c5c(N)ncnc54)cc3)cn2)C(C)(C)C)cc1` [Compound 33], below 1000 nM; for `Cn1c(=O)n(C2CCC(=O)NC2=O)c2ccc(CCC(=O)N3CCN(c4ccc(C#Cc5ccc(C(=O)NCCCn6cc(-c7ccc8c(c7)CCN8C(=O)Cc7cccc(OC(F)(F)F)c7)c7c(N)ncnc76)cc5)cn4)CC3)cc21` (stereo not shown) [Compound 79], below 1000 nM. Next, `Nc1ncnc2c1c(-c1ccc3c(c1)CCN3C(=O)Cc1cccc(OC(F)(F)F)c1)cn2CCCNC(=O)CCCCCCCCNC(=O)[C@@H]1NC2(CCCCC2)[C@@]2(C(=O)Nc3cc(Cl)ccc32)[C@H]1c1cccc(Cl)c1F` [Compound 10, (3′R,4'S,5′R)-N-(9-((3-(4-amino-5-(1-(2-(3-(trifluoromethoxy)phenyl)acetyl)indolin-5-yl)-7H-pyrrolo[2,3-d]pyrimidin-7-yl)propyl)amino)-9-oxononyl)-6″-chloro-4′-(3-chloro-2-fluorophenyl)-2″-oxodispiro[cyclohexane-1,2′-pyrrolidine-3′,3″-indoline]-5′-carboxamide]: 1000 to 10000 nM. With `Cc1ncsc1-c1ccc([C@H](C)NC(=O)[C@@H]2C[C@@H](O)CN2C(=O)[C@@H](NC(=O)CCCCCCCCNC(=O)c2ccc(-c3cc(N4CCC(C(=O)N5N=CCC5c5ccccc5)CC4)ncn3)cc2)C(C)(C)C)cc1` (stereo partly shown) [Compound 77], the DC50 is above 10000 nM. Next, `Nc1ncnc2c1c(-c1ccc3c(c1)CCN3C(=O)Cc1cccc(OC(F)(F)F)c1)cn2CCCNC(=O)c1ccc(C#CC2CCN(C3CCN(C(=O)CN4CCC(c5ccc(NC6CCC(=O)NC6=O)cc5)CC4)CC3)CC2)cc1` (stereo not shown) [Compound 66]: below 1000 nM. Take `O=C(NCCOCCOCCOCCNC(=O)[C@@H]1NC2(CCCCC2)[C@@]2(C(=O)Nc3cc(Cl)ccc32)[C@H]1c1cccc(Cl)c1F)c1ccnc(N2CCC(C(=O)N3N=CCC3c3ccccc3)CC2)n1` (stereo partly drawn) [Compound 20, (3′R,4'S,5′R)-6″-chloro-4′-(3-chloro-2-fluorophenyl)-2″-oxo-N-(1-oxo-1-(2-(4-(5-phenyl-4,5-dihydro-1H-pyrazole-1-carbonyl)piperidin-1-yl)pyrimidin-4-yl)-5,8,11-trioxa-2-azatridecan-13-yl)dispiro[cyclohexane-1,2′-pyrrolidine-3′,3″-indoline]-5′-carboxamide]: the DC50 fell in the range of 1000 to 10000 nM.

`Cc1ncsc1-c1ccc([C@H](C)NC(=O)[C@@H]2C[C@@H](O)CN2C(=O)[C@@H](NC(=O)CCCCCCCCC(=O)N2CCC(C(=O)N3N=CCC3c3ccccc3)CC2)C(C)(C)C)cc1` (stereo partly drawn) [Compound 13, (2S,4R)-1-((2S)-3,3-dimethyl-2-(10-oxo-10-(4-(5-phenyl-4,5-dihydro-1H-pyrazole-1-carbonyl)piperidin-1-yl)decanamide)butanoyl)-4-hydroxy-N—((S)-1-(4-(4-methylthiazol-5-yl)phenyl)ethyl)pyrrolidine-2-carboxamide]: the DC50 was above 10000 nM.
